According to patent publication US9234230B2, “Screening method and compounds for modulating telomerase activity” (The Wistar Institute, priority 2010, dated 2016):

Tested on: TERT protein
Assay: Fluorescence polarization binding assay (inhibitory activity of selected Table 9 compounds)
Set-up: species or system Tribolium castaneum
Details: TERT-Chim21m complex 250 nM, cyanine 5-dCTP 10 nM, footnote: observed value corresponds to 50% of the actual inhibition value; for Inhibition at 5 μM (%)*: compound 5 μM; for Inhibition at 50 μM (%)*: compound 50 μM
Experimental: The TERT protein was expressed and purified as described herein. Protein was concentrated to 4.72 mg ml-l using an AMICON 30K cutoff filter (Millipore) and stored at −80° C. for binding assays.
For the binding assay, TERT protein was diluted to a 500 nM concentration in a solution of 50 mM Tris-HCl, pH 7.5, 200 mM KCl, and 20% glycerol. A 1.2-fold molar excess of the Chim21m RNA-DNA hybrid (Integrated DNA Technologies), containing the template for telomere extension (5′-rCrUrG rArCrC rUrGrA rCTT CGG TCA GGT-3′; SEQ ID NO:19), was then added to these samples and kept on ice. The cyanine 5-dCTP (Perkin Elmer) for the binding study was made up to a 20 nM concentration in sterile, RNase, DNase free water with […].
Compound screens were carried out as 30.5 μl reactions in a 384-well, round bottom plate (Thermo). Fifteen μl of TERT-Chim21m complex was first added to each well. Then 0.5 μl of library compound (ChemBridge) was added to this solution. Finally, 15 μl of the nucleotide-MgCl2 sample was added, and the solution mixed to provide final concentrations of 250 nM protein-nucleic acid, 10 nM cyanine 5-dCTP, and […]. Final compound concentrations were 50 μM and 5 μM. All additions were completed using a Janus 96/384 Modular Dispensing Tool (Perkin Elmer), performed in triplicate, and equilibrated for 40 minutes. Fluorescence polarization was measured at λex=620 nm and λem=688 nm on an EnVision Xcite Multilabel plate reader (Perkin Elmer). Polarization was calculated using the standard equation: P=(V−H)/(V+H), where P denotes polarization, V denotes vertical emission intensity, and H denotes horizontal emission intensity.

| Compound | Inhibition at 5 μM (%)* [%] | Inhibition at 50 μM (%)* [%] |
| --- | --- | --- |
| COc1cc(CNCCc2ccccc2)cc(Br)c1OCC(N)=O [2-(2-bromo-6-methoxy-4-{[(2-phenylethyl)amino]methyl}phenoxy)acetamide] | 12.21 | 27.65 |
| CCOc1cc(CNCc2cccnc2)cc(Cl)c1OCC(N)=O.Cl [2-(2-chloro-6-ethoxy-4-{[(3-pyridinylmethyl)amino]methyl}phenoxy)acetamide hydrochloride] | 14.87 | 38.78 |
| COc1cc(CNc2ccc3[nH]c(=O)[nH]c3c2)cc(Cl)c1OCC(N)=O [2-(2-chloro-6-methoxy-4-{[(2-oxo-2,3-dihydro-1H-benzimidazol-5-yl)amino]methyl}phenoxy)acetamide] | 15.94 | 29.33 |
| COc1cc(CNCc2ccncc2)cc(Cl)c1OCC(N)=O.Cl [2-(2-chloro-6-methoxy-4-{[(4-pyridinylmethyl)amino]methyl}phenoxy)acetamide hydrochloride] | 23.05 | 45.56 |
| COc1cc(CNC2C3CC4CC(C3)CC2C4)cc(Cl)c1OCC(N)=O (stereo not drawn) [2-{4-[(2-adamantylamino)methyl]-2-chloro-6-methoxyphenoxy}acetamide] | 13.73 | 35.18 |
| O=C(NCCCO)C1CCCN(S(=O)(=O)c2ccc3ccccc3c2)C1 (stereo not drawn) [N-(3-hydroxypropyl)-1-(2-naphthylsulfonyl)-3-piperidinecarboxamide] | 13.44 | 30.42 |
| CCOC(=O)c1c(NC(=O)/C=C/C(N)=O)sc(C)c1C [ethyl 2-[(4-amino-4-oxo-2-butenoyl)amino]-4,5-dimethyl-3-thiophenecarboxylate] | 19.23 | 39.41 |

Continued, values first:

| Inhibition at 5 μM (%)* [%] | Inhibition at 50 μM (%)* [%] | Compound |
| --- | --- | --- |
| 4.74 | 27.38 | CC(C(=O)Nn1cnnc1)N1C(=O)c2ccccc2C1=O (stereo not drawn) [2-(1,3-dioxo-1,3-dihydro-2H-isoindol-2-yl)-N-4H-1,2,4-triazol-4-ylpropanamide] |
| 16.14 | 30.92 | CCOc1cc(CNCc2ccco2)cc(Br)c1OCC(N)=O.Cl [2-(2-bromo-6-ethoxy-4-{[(2-furylmethyl)amino]methyl}phenoxy)acetamide hydrochloride] |
| 17.68 | 49.10 | CCOc1cc(CNCc2cccs2)cc(Cl)c1OCC(N)=O.Cl [2-(2-chloro-6-ethoxy-4-{[(2-thienylmethyl)amino]methyl}phenoxy)acetamide hydrochloride] |
| 10.94 | 41.26 | COc1cc(CNCc2cccs2)cc(Cl)c1OCC(N)=O.Cl [2-(2-chloro-6-methoxy-4-{[(2-thienylmethyl)amino]methyl}phenoxy)acetamide hydrochloride] |
| 18.27 | 30.23 | COc1cc(CNCCN2CCOCC2)cc(Br)c1OCC(N)=O.Cl.Cl [2-[2-bromo-6-methoxy-4-({[2-(4-morpholinyl)ethyl]amino}methyl)phenoxy]acetamide dihydrochloride] |
| 10.94 | 29.35 | Cc1ccc(C(=O)Nn2cnnc2)c(Cl)c1 [2-chloro-4-methyl-N-4H-1,2,4-triazol-4-ylbenzamide] |
| 17.00 | 31.30 | CNCc1cc(Cl)c(OCC(N)=O)c(OC)c1.Cl [2-{2-chloro-6-methoxy-4-[(methylamino)methyl]phenoxy}acetamide hydrochloride] |
| 4.96 | 29.96 | COc1cc(CNCc2ccccc2)cc(Cl)c1OCC(N)=O.Cl [2-{4-[(benzylamino)methyl]-2-chloro-6-methoxyphenoxy}acetamide hydrochloride] |
| 18.11 | 36.58 | NC(=O)CCN1C(=O)c2cccc3cccc(c23)C1=O [3-(1,3-dioxo-1H-benzo[de]isoquinolin-2(3H)-yl)propanamide] |
| 11.97 | 30.04 | O=C(Nn1cnnc1)c1cc(Br)ccc1Cl [5-bromo-2-chloro-N-4H-1,2,4-triazol-4-ylbenzamide] |
| 6.67 | 29.71 | CC(O)CNC(=O)C(=O)Nc1ccc2c(c1)OCO2 (stereo not drawn) [N-1,3-benzodioxol-5-yl-N′-(2-hydroxypropyl)ethanediamide] |
